Earlier results as cited in patent US12133903B2, “Oral care article comprising a delivery carrier and solid hydrophilic particles comprising a bleaching agent” (The Procter & Gamble Company, priority 2020, dated 2024).

Conditions: in water; supplier data sheet / Safety Data Sheet / Wikipedia

NC(N)=O.OO [Urea Hydrogen Peroxide Adduct]
Solubility: 80 parts per 100 parts of water
